“Also recorded” adds a separate entry of the source.
Assays:
CDK6-cyclin D = tested on: CDK6-cyclin D; design: method as in Sherr et al., 2016; details: ref Sherr et al., 2016; read-out: IC50 against CDK6-cyclin D; cited from earlier work
CDK4-cyclin D = tested on: CDK4-cyclin D; design: method as in Sherr et al., 2016; details: ref Sherr et al., 2016; read-out: IC50 against CDK4-cyclin D; cited from earlier work
CDK4-Cdc37 complex = target: T1, CDK4-Cdc37 complex (Homo sapiens, UniProt P11802); type: binding; details: HTRF competition, 8 nM GSTCDK4, 150 nM C-Avi Cdc37
T1 construct: Full length human CDK4 and CDK6 with an N-terminal; made in house; host or cells: GSTCDK4: Sf9 insect cells; Cdc37: E. coli
T1 sequence (P11802 whole entry, one chain of several): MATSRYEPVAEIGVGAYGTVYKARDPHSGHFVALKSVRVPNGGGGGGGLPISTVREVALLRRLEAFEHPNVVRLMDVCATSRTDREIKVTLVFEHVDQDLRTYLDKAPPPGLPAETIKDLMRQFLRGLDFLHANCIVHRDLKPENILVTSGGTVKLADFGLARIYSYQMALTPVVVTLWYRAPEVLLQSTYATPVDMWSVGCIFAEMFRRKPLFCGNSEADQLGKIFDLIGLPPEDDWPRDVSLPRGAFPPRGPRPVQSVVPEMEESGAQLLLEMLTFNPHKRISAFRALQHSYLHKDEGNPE

[1] = target: B-Raf^V600E kinase domain; design: method as in Polier et al., 2013; details: isothermal titration calorimetry; ref Polier et al., 2013; read-out: Affinity of Cdc37-B-Raf^V600E kinase domain interaction; cited from earlier work
CDK4 = target: T2, CDK4 (Homo sapiens, UniProt P11802); assay: HTRF direct binding to GSTCDK4; details: GSTCDK4 10 nM, read-out: Dissociation constant for binding to CDK4
T2 construct: Full length human CDK4 and CDK6 with an N-terminal; made in house; host or cells: Sf9 insect cells (baculovirus, MultiBac)
T2 sequence (P11802 whole entry): as the sequence (P11802 whole entry, one chain of several) above
Description: (§1) exchange chromatography (HiTrap Q, GE Healthcare). Protein concentrations were determined by NanoDrop2000 UV-Vis Spectrophotometer (Thermo Scientific) or using a Shimadzu UV1800 spectrophotometer. A representative SDS-polyacrylamide gel stained with silver is shown in Figure S4 to illustrate the purity of the GSTCDK4 and GSTCDK6 […]
(§2) Avi-tagged proteins (Cdc37, p16INK4a, p16INK4a mutants, Kcyclin and Vcyclin) were biotinylated to provide an affinity tag for the streptavidin-tagged XL665 dye. A substantial amount of biotinylated protein was purified from the recombinant E. coli cells as a result of endogenous BirA activity. Proteins were further modified by incubating 40 µM of the Avi-tagged protein with 10 µg BirA in biotinylation buffer (50 mM Bicine pH 8.3, 10 mM ATP, 10 mM MgOAc, 50 µM d-biotin) at 30°C for 60 minutes. […] The extent of protein biotinylation was monitored by pull downs using High Capacity NeutrAvidin® Agarose Resin (Thermo […]
(§3) To assemble the various complexes, 15 µg of Cdc37 was mixed with a molar equivalent of CDK6, and incubated for 1hour at 4 °C. […] The reactions were stopped by addition of 2 x LDS buffer and analysed by SDS-PAGE and subsequent western blotting using an anti-phosphorylated S780 antibody […]
(§4) Homogenous time-resolved fluorescence (HTRF) […]

CDK6 = target: T3, CDK6 (Homo sapiens, UniProt Q00534); assay: HTRF direct binding to GSTCDK6; details: GSTCDK6 10 nM, read-out: Dissociation constant for binding to CDK6
T3 construct: Full length human CDK4 and CDK6 with an N-terminal; made in house; host or cells: Sf9 insect cells (baculovirus, MultiBac)
T3 sequence (Q00534 whole entry): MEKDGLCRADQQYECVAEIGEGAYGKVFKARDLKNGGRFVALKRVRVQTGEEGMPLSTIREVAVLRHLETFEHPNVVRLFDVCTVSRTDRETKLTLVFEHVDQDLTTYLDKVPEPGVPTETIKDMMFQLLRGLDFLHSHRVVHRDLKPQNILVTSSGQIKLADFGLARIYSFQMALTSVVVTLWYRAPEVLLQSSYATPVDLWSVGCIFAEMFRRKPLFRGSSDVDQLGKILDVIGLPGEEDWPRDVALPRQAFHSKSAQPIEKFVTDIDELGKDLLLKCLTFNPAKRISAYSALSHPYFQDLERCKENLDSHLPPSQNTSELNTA
Description: as §1, §2, §3, §4

CDK2 = target: T4, CDK2 (Homo sapiens, UniProt P24941); assay: HTRF direct binding to GSTCDK2; details: GSTCDK2 25 nM
T4 construct: made in house; host or cells: E. coli BL21STAR(DE3)
Description: as §1, §2, §3, §4

[2] = target: T5, CDK4-cyclin D1/D3 complexes (Homo sapiens, UniProt P11802); assay: HTRF association of Avi-tagged Cdc37 with GSTCDK4-cyclin D complexes with or without p21M/p27M; type: binding; details: ternary complex, Figure 4E
T5 construct: Full length human CDK4 and CDK6 with an N-terminal; made in house; host or cells: Sf9 insect cells (co-expression)
T5 sequence (P11802 whole entry): as the sequence (P11802 whole entry, one chain of several) above
T5 sequence (P30281 whole entry partner): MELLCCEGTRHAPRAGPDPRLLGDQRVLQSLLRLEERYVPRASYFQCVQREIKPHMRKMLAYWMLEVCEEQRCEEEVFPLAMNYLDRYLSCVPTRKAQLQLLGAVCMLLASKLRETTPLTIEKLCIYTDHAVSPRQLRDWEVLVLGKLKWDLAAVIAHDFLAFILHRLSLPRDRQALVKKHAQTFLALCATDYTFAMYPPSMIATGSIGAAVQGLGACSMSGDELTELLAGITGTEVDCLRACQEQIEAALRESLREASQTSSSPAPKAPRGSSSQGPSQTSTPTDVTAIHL
Description: To find out whether the CIP/KIP CKIs can cooperate with cyclin D isoforms to generate a stable ternary CDK4 complex that is resistant to displacement by Cdc37, we next purified GSTCDK4-cyclin D1 and D3 and GSTCDK6-cyclin D1 and D3 complexes assembled in insect cells, incubated them with excess p21M or p27M, and isolated the complexes by size-exclusion chromatography. We then used the HTRF assay to measure the association of Avi-tagged Cdc37 with GSTCDK4 and GSTCDK6, which were presented unpartnered, in a binary complex with cyclin D1 or cyclin D3, or in a ternary complex with cyclin D1 or D3 and p21M, or p27M. As shown previously, Cdc37 binds to monomeric CDK4 (Figures 4C and 4E, blue lines) and effectively displaces cyclin D1 or cyclin D3 (Figures 4C and 4E, red lines). […]
as §1
Avi-tagged proteins (Cdc37, p16INK4a, p16INK4a mutants, Kcyclin and Vcyclin) were biotinylated to provide an affinity tag for the streptavidin-tagged XL665 dye. […] The extent of protein biotinylation was monitored by pull downs using High Capacity NeutrAvidin® Agarose Resin (Thermo […]

Molecule | IC50 (CDK6-cyclin D) [nM] | IC50 (CDK4-cyclin D) [nM] | Displacement of Cdc37 from CDK4-Cdc37 complex (in words) (CDK4-Cdc37 complex) | also measured
CN(C)C(=O)c1cc2cnc(Nc3ccc(N4CCNCC4)cn3)nc2n1C1CCCC1 [LEE011, ribociclib] | 39 | 10 |  | 
CCN1CCN(Cc2ccc(Nc3ncc(F)c(-c4cc(F)c5nc(C)n(C(C)C)c5c4)n3)nc2)CC1 [LY2835219, abemaciclib] | 5 | 2 | unable to derive reproducible inhibition curves | 
CC(=O)c1c(C)c2cnc(Nc3ccc(N4CCNCC4)cn3)nc2n(C2CCCC2)c1=O [PD0332991, palbociclib] | 15 | 11 |  | 
Cdc37: human Hsp90 adaptor co-chaperone Cdc37, recombinant, Avi- or FLAG-tagged |  |  |  | Kd [1]: ~200 nM; Kd (CDK4): 92 ± 29 nM; Kd (CDK6): 460 ± 230 nM; Binding to CDK2 (CDK2): not bind to CDK2; also recorded: no interaction could be detected
p21M: p21CIP1 fragment residues 1–87 |  |  | can displace | Effect of addition to CDK4-cyclin D3 on Cdc37 binding [2]: prevent Cdc37 from binding
p21S: p21CIP1 fragment residues 9–87 |  |  | can displace | 
